The text below walks through data of ChEMBL document CHEMBL1201862, “PubChem BioAssay data set” (2004).

Some test systems named below: RPMI-8226; UACC-257; COLO 205; MOLT-4; SF-295; SK-MEL-5; SN12C; IGROV-1; NCI-H226; U-251; SNB-19; CCRF-CEM; NCI/ADR-RES; CAKI-1; OVCAR-4; 786-0; ACHN; Hs-578T.
Holding throughout (assay): NCI-60 cell line screen, 48 h

Each structure is given as a SMILES string.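 Grown in 96-well plates, cells were treated for 48 hours with each compound at five concentrations. Insufficient inhibition: endpoint recorded as highest concentration tested. Abbreviation: GI50, concentration required for 50% inhibition of growth.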 The source made the active and inactive calls. No stated cut-off is given here; in the data, active = GI50 up to about 1.1 µM and inactive = higher.

In the case of `CCCCCCCCCCCC1CCCC(C)N1` (stereo unspecified), the GI50 is 23.2 µM (inactive) with RPMI-8226; 45.8 µM (inactive) in the test with UACC-257; 36 µM (inactive) in the test with COLO 205; 15.9 µM (inactive) in the test on MOLT-4; 77.8 µM (inactive) with SF-295; 36.4 µM (inactive) in the test on SK-MEL-5. Further, the GI50 is 53.1 µM (inactive) in the test on SN12C; 61.2 µM (inactive) with IGROV-1; 76.9 µM (inactive) in the test with NCI-H226; 59.3 µM (inactive) in the test with U-251; 76.2 µM (inactive) in the test with SNB-19; 23.3 µM (inactive) with CCRF-CEM. For the same compound, the figures for the GI50 in the test on NCI/ADR-RES, in the test on CAKI-1 and in the test on OVCAR-4 were 72.4 µM (inactive), 43.2 µM (inactive) and 61.2 µM (inactive), respectively.

Turning to `Cc1cc(N(CCC#N)CCC#N)ccc1/C=C(\NC(=O)/C=C/c1ccccc1)NC(=O)Nc1ccccc1C`, the GI50 in the test on RPMI-8226 was > 100 µM (inactive); with UACC-257, > 100 µM (inactive); with COLO 205, > 100 µM (inactive); with MOLT-4, > 100 µM (inactive); in the test on SF-295, 25.4 µM (inactive); with SK-MEL-5 it was 61 µM (inactive). Besides, the GI50 is 77.3 µM (inactive) in the test on SN12C; 68.4 µM (inactive) in the test with IGROV-1; 22.6 µM (inactive) in the test with NCI-H226; 26.8 µM (inactive) in the test on 786-0; 17.1 µM (inactive) in the test with U-251; 32.7 µM (inactive) in the test on SNB-19. The GI50 with CCRF-CEM was > 100 µM (inactive); with ACHN, 55.3 µM (inactive); in the test with CAKI-1 it was 69.7 µM (inactive); in the test on OVCAR-4 it was 26.8 µM (inactive).

Regarding `O=C1C(Cl)N(c2c(Cl)cccc2Cl)C1c1c[nH]c2ccccc12` (stereo unspecified), the GI50 in the test on RPMI-8226, in the test on UACC-257, in the test on COLO 205, in the test with MOLT-4, in the test with SF-295 and in the test on SK-MEL-5 was > 100 µM (inactive) throughout. Moreover, the GI50 with SN12C, with IGROV-1, in the test on U-251, in the test with SNB-19, with CCRF-CEM and in the test with OVCAR-4 was > 100 µM (inactive) each time.

As for `O=C(Cc1ccccc1)NN1C(=O)C(Cl)C1c1ccccc1` (stereo unspecified), the GI50 with RPMI-8226 is 18.7 µM (inactive); in the test with UACC-257, > 100 µM (inactive); with COLO 205, > 100 µM (inactive); in the test with MOLT-4, 23 µM (inactive); in the test with SF-295, > 100 µM (inactive); in the test on SK-MEL-5 it was 74.1 µM (inactive). The GI50 in the test with SN12C was 35.9 µM (inactive); in the test with IGROV-1, 66.4 µM (inactive); in the test on NCI-H226 it was > 100 µM (inactive); in the test on 786-0, > 100 µM (inactive); with U-251, > 100 µM (inactive); in the test on SNB-19, > 100 µM (inactive). The GI50 is 18.6 µM (inactive) in the test on CCRF-CEM, > 100 µM (inactive) with ACHN, > 100 µM (inactive) in the test on CAKI-1 and 39.1 µM (inactive) with OVCAR-4.

In the case of `CC1=C(Oc2ccccc2)C(CCC(=O)O)c2c(O)cc(Cl)c(O)c21` (stereo unspecified), the GI50 in the test on RPMI-8226, with UACC-257, in the test on COLO 205, with MOLT-4, in the test with SF-295 and in the test with SK-MEL-5 was > 100 µM (inactive) each time. Moreover, the GI50 with SN12C, in the test with IGROV-1, in the test on 786-0, in the test with U-251, in the test on SNB-19 and in the test on CCRF-CEM was > 100 µM (inactive) throughout. The GI50 with CAKI-1 and in the test with OVCAR-4 was > 100 µM (inactive) each time.

On to `COC(=O)c1cc(CNCCc2c[nH]c3ccccc23)on1`, for which the GI50 was > 100 µM (inactive) in the test on RPMI-8226; > 100 µM (inactive) in the test on UACC-257; > 100 µM (inactive) in the test on COLO 205; > 100 µM (inactive) in the test on MOLT-4; > 100 µM (inactive) in the test with Hs-578T; > 91.8 µM (inactive) in the test on SF-295. In addition, the GI50 in the test with SK-MEL-5 is > 100 µM (inactive); in the test with SN12C, > 100 µM (inactive); in the test on IGROV-1, > 100 µM (inactive); in the test on NCI-H226, > 100 µM (inactive); in the test on 786-0 it was 33.8 µM (inactive); in the test with U-251, > 100 µM (inactive). Moreover, the GI50 in the test on SNB-19 is > 100 µM (inactive); with CCRF-CEM, > 100 µM (inactive); in the test on ACHN it was > 60.8 µM (inactive); in the test with NCI/ADR-RES, > 100 µM (inactive); in the test with CAKI-1, > 78.2 µM (inactive); with OVCAR-4, > 33.8 µM (inactive).

For the compound `COc1cc(CCc2ccc(OCCN(C)C)cc2)cc(OC)c1OC`, the GI50 is 28.6 µM (inactive) in the test on RPMI-8226; 72.4 µM (inactive) in the test on UACC-257; 20.3 µM (inactive) in the test on COLO 205; 32.6 µM (inactive) with MOLT-4; > 100 µM (inactive) in the test with SF-295; 24.1 µM (inactive) in the test with SK-MEL-5. In addition, the GI50 in the test with SN12C was > 100 µM (inactive); in the test with IGROV-1 it was > 100 µM (inactive); with NCI-H226, 79.6 µM (inactive); with 786-0, > 100 µM (inactive); in the test with U-251 it was > 100 µM (inactive); with SNB-19, > 100 µM (inactive). For the same compound, the GI50 in the test with CCRF-CEM, in the test with ACHN, with CAKI-1 and in the test with OVCAR-4 was > 100 µM (inactive) throughout.

In the case of `C[C@@]12CC[C@H]3[C@@H]4CCC(=O)N[C@@]4(C)CC[C@@H]3[C@@]1(C)CC[C@H](OC(=O)Cc1ccc(N(CCCl)CCCl)cc1)C2`, the GI50 in the test on RPMI-8226 is 18.4 µM (inactive); in the test with UACC-257, 24.8 µM (inactive); in the test with COLO 205 it was 20.4 µM (inactive); in the test with MOLT-4, 10.1 µM (inactive); with SF-295, 17.5 µM (inactive); in the test on SK-MEL-5, 13.7 µM (inactive). Further, the GI50 was 14.2 µM (inactive) in the test with SN12C; 16.2 µM (inactive) with IGROV-1; 17.2 µM (inactive) in the test with NCI-H226; 15 µM (inactive) in the test with U-251; > 10 µM (inactive) in the test with SNB-19; 11.5 µM (inactive) in the test on CCRF-CEM. Moreover, the GI50 in the test with NCI/ADR-RES is 18.3 µM (inactive); in the test with CAKI-1, 16.5 µM (inactive); with OVCAR-4 it was 18.2 µM (inactive).

`CCN(CC)CCSc1nc2cccc([N+](=O)[O-])c2[nH]1`: the GI50 with RPMI-8226, with UACC-257, in the test on COLO 205, in the test with MOLT-4, in the test with SK-MEL-5 and in the test on SN12C was > 100 µM (inactive) each time. Also, the GI50 with IGROV-1, in the test on NCI-H226, in the test with CCRF-CEM, in the test on CAKI-1 and in the test on OVCAR-4 was > 100 µM (inactive) in each case.

With `NC(=O)c1ncn(C2OC(CO)C(O)C2O)c1NC(=S)NC(=O)c1ccccc1` (stereo unspecified), the GI50 with RPMI-8226, with UACC-257, in the test on COLO 205, in the test with MOLT-4, with SF-295 and with SK-MEL-5 was > 100 µM (inactive) each time. Also, the GI50 with SN12C, in the test with IGROV-1, with NCI-H226, in the test on 786-0, with U-251 and in the test with SNB-19 was > 100 µM (inactive) each time. The GI50 in the test on CCRF-CEM, in the test with ACHN, with CAKI-1 and with OVCAR-4 was > 100 µM (inactive) in each case.

On to `Cn1c(=O)nc2n(-c3ccc(F)cc3)c3ccccc3nc-2c1=O`, for which the GI50 was 25.2 µM (inactive) in the test on RPMI-8226; 14.4 µM (inactive) with UACC-257; 6.84 µM (inactive) in the test on COLO 205; 25.7 µM (inactive) in the test with MOLT-4; 18.7 µM (inactive) in the test with SF-295; 12.6 µM (inactive) in the test on SK-MEL-5. For the same compound, the GI50 with SN12C was 20.5 µM (inactive); in the test with IGROV-1, 24 µM (inactive); in the test with NCI-H226, 36.7 µM (inactive); in the test with 786-0, 28.2 µM (inactive); with U-251, 21.5 µM (inactive); in the test on SNB-19 it was 13.9 µM (inactive). In addition, the GI50 was 26.6 µM (inactive) with CCRF-CEM, 13.9 µM (inactive) in the test with ACHN, 28.8 µM (inactive) with CAKI-1 and 14.4 µM (inactive) in the test on OVCAR-4.

Regarding `Cn1c2c([N+](=O)[O-])[se]nc2c(=O)n1-c1ccc([N+](=O)[O-])cc1`, the GI50 in the test with RPMI-8226 was 1.82 µM (inactive); in the test with UACC-257, 1.96 µM (inactive); with COLO 205, 1.67 µM (inactive); in the test with SF-295, 3.13 µM (inactive); with SK-MEL-5 it was 4.43 µM (inactive); with SN12C, 1.71 µM (inactive). In addition, the GI50 with IGROV-1 was 1.29 µM (inactive); with NCI-H226, 2.96 µM (inactive); with 786-0 it was 2.44 µM (inactive); in the test with U-251 it was 2.51 µM (inactive); with SNB-19 it was 6.01 µM (inactive); in the test on CCRF-CEM, 0.627 µM (active). Moreover, the results for the GI50 in the test on ACHN, in the test on CAKI-1 and with OVCAR-4 were 1.95 µM (inactive), 1.94 µM (inactive) and 0.447 µM (active), respectively.

With `O=C(O)CCC(=O)N1c2ccccc2CC1c1c[nH]c2ccccc12` (stereo unspecified), the GI50 in the test with RPMI-8226, in the test on UACC-257, in the test on COLO 205, in the test with MOLT-4, in the test with SF-295 and with SK-MEL-5 was > 100 µM (inactive) in each case. Further, the GI50 in the test with SN12C, with IGROV-1, with NCI-H226, in the test with 786-0, in the test on U-251 and with SNB-19 was > 100 µM (inactive) throughout. In addition, the GI50 in the test on CCRF-CEM, in the test on ACHN, in the test with CAKI-1 and with OVCAR-4 was > 100 µM (inactive) in each case.
